The source of these data is article PMC9101642 (Molecules, 2022).

Read-outs that look alike come from different tables or passages of the source. Marks after values point to notes of the source that are not given here.

For data set [1], the system named is MCF-7 cell lines. Put plainly: MTT antiproliferative assay. Particulars: for IC50: Homo sapiens, MCF7; for SI: selectivity index [IC50(MDA-MB-231)]/[IC50(MCF-7)]. Type of data set: cell-based, human. On the technique in general: Tetrazolium assays rely on reduction of a dye to a coloured formazan, in cell work by metabolically active cells.
Data set [2] relates to MDA-MB-231 cell lines. Briefly: MTT antiproliferative assay. Type of data set: cell-based, human. Particulars: Homo sapiens, MDA-MB-231.
Data set [3] can be described thus: MTT antiproliferative assay (neutral control). Particulars: human.
The target of data set [4] is T1, ERα (Homo sapiens, UniProt P03372).
T1 sequence (P03372 1-595): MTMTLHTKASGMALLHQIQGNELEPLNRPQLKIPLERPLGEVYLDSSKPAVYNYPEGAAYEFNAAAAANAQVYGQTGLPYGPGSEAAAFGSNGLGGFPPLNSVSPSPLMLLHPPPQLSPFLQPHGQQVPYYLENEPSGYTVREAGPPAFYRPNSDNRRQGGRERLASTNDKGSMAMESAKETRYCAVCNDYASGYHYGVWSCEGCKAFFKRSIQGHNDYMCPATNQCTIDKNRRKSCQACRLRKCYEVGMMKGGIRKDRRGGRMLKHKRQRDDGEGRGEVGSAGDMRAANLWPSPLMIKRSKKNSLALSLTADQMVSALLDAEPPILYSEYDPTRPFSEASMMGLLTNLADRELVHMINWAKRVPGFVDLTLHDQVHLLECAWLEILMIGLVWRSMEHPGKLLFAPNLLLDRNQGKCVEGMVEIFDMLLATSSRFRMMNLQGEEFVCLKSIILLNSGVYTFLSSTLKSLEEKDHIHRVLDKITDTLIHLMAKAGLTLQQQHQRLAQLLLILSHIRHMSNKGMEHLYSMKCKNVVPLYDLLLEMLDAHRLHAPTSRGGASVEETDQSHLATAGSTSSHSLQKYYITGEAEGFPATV
Briefly: Fluorescence polarization competition assay: antagonistic potency and relative binding affinity. Particulars: for logRBA ERα: log of % relative binding affinity, estradiol = 100%; for ERα potency, fold more potent than 4-OHT: ratio of IC50 values.

In data set [5] the target is ERβ (Homo sapiens, UniProt Q92731). The description is as above. Particulars: for logRBA ERβ: log of % relative binding affinity, estradiol = 100%.
Data set [6] relates to Ishikawa endometrial adenocarcinoma cells. Put plainly: Antiproliferative assay. Type of data set: cell-based. Particulars: Homo sapiens, growth inhibition. From the text: As SERMs profile is often associated with the stimulation of endometrial cell proliferation and an increase in the incidence of endometrial cancer (EC), the herein compounds were therefore evaluated against Ishikawa endometrial adenocarcinoma cells (Table 8, Supplementary Material Figures […]). […] However, future experimental elaboration, currently beyond the authors' experimental facilities, is required to confirm compounds' promising profiles in terms of no EC induction.

Data set [7] has as its target T1, ERα. Briefly: ERα down-regulation immunofluorescence assay in MCF-7. The class given is cell-based.
For data set [8], the system named is progesterone receptor (PR). Briefly: ERα functional antagonism cell assay (PR as biomarker) in MCF-7. Type of data set: cell-based. Particulars: Homo sapiens, MCF7; progesterone receptor as biomarker for ERα antagonism in MCF-7.
Data set [9] relates to MCF-7 cells. Put plainly: Cell cycle distribution by flow cytometry. Particulars: 24 h. Type of data set: cell-based, human. (In general: In flow cytometry, cells or beads pass a laser one at a time.)
Data set [10] concerns MNU-induced breast cancer. Put plainly: In vivo anticancer screening, MNU-induced mammary tumorigenesis. Also noted: species or system female Wistar rats. Particulars: dose 50 mg/kg (compounds per os after MNU; MNU alone i.p.).
Data set [11] can be described thus: Serum biochemical markers after treatment of MNU-induced rats. Particulars: dose 50 mg/kg. The class given is in vivo, Wistar rats. Set-up: TBC: unit not given here. The protocol: (§1) Rats were housed at 3 per cage and
(§2) The breast cancer was induced after the MNU (Sigma Aldrich CAS No. 684-93-5) administration. An aqueous solution at a concentration of 10 mg/ml was made by wetting the NMU powder with 3% acetic acid and then dissolving it in 0.9% NaCl solution; a fresh solution was prepared for each injection. Rats were given intraperitoneal (i.p.) 50 mg/kg of MNU on the 50th day of age. Animals were divided into different groups with six animals in each group. Group I (intact control) received 0.9% NaCl solution.
(§3) Groups II-IV and V-VII were introduced with MNU. Two weeks after MNU treatment, animals were treated orally with synthesized compounds and control substances (5 and 50 mg/kg, for groups II-IV and V-VII, respectively) by gavage once per day for six weeks. Animals in the intact control group and untreated MNU group were given vehicle (Tween 80) according to the experimental protocol. […]
Upon finishing the treatment with synthesized compounds, animals were sacrificed, and plasma, serum, and liver samples were collected.
Measurement of Serum Biochemical Markers
The activities of AST and ALT on 340 nm, and ALP on 405 nm, were determined by UV-Vis kinetic methods according to recommendations of the Expert Panel of the IFCC (International Federation of Clinical Chemistry). The colorimetric methods were used for the determination of total bilirubin (Jendrassik-Grof 550 nm method). All kinetic and colorimetric measurements were recorded using a Perkin-Elmer Lambda 25 UV/Vis spectrophotometer. […]

Data set [12] in a line: Liver oxidative stress markers after treatment of MNU-induced rats. Particulars: liver, dose 50 mg/kg. The class given is in vivo, Wistar rats. The protocol: as §1, §2, §3
Upon finishing the treatment with synthesized compounds, animals were sacrificed, and plasma, serum, and liver samples were collected. […]
Determination of Antioxidant Markers in Liver Homogenate
Rat liver samples were homogenized in phosphate buffer (5 mM, pH = 7.4) to give a 10% (w/v) liver homogenate and then centrifuged at 4000 rpm for 15 min at 4°C. The supernatant of liver homogenate was used for the estimation of reduced glutathione (GSH) and catalase (CAT) levels by the colorimetric method. The contents of malondialdehyde (MDA) in the supernatant of the liver homogenates were determined using 1,1,3,3-tetraethoxypropane as standard. Total protein concentrations were determined according to the method of Lowry using bovine serum albumin as […]

The test system of data set [13] is MNU-induced breast cancer tissue. Put plainly: Histopathology of breast sections. The class given is in vivo, Wistar rats. Particulars: 50 mg/kg of bwt. From the text: The impact of selected leads on BC tissue was registered after their administration to experimental animals with MNU-induced BC (Figure 9 and Supplementary Material Figures S211–S218). […] In contrast to this, the administered leads were harmless in both concentrations, neutralizing the MNU-induced changes, judging by the lobuloalveolar units and cuboidal epithelial cells found (Figure 9C,D, and Supplementary Material Figures S214–S218). […]
Histopathological Studies
histopathological changes. […]

Where [14] appears, read: growth inhibition, 48 h, read-out: MCF-7 (IC50 nM).
Where [15] appears, read: growth inhibition, 48 h, read-out: MDA-MB-231 (IC50 nM).
Setting [16] is: 1 nM as lower concentration (3DPQ-5, 3DPQ-6, 3DPQ-8).
Where [17] appears, read: MFD 1000 mg/kg (MNU: MTD 100 mg/kg bwt), 5 days.

Chain of ERβ (Q92731 whole entry): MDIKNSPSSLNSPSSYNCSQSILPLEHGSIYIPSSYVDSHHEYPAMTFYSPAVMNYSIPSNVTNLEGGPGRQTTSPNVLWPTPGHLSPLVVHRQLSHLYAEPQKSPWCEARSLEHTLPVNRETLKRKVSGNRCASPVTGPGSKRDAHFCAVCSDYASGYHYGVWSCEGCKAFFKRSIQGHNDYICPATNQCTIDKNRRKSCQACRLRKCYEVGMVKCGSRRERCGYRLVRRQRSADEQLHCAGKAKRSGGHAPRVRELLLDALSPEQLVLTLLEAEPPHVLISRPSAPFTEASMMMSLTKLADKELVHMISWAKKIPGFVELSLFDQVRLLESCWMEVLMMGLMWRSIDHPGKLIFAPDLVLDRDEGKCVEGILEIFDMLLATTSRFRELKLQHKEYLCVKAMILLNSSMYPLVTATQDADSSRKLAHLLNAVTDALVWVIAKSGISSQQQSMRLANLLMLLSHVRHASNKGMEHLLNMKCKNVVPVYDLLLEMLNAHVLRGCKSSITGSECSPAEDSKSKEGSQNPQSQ

As usually defined, the IC50 is the concentration at which inhibition is half-maximal. For `C[C@H]1CCC/C=C/[C@@H]2C[C@H](O)C[C@H]2[C@H](O)/C=C/C(=O)O1` [BFA, Brefeldin A, reference compound], the half-maximal inhibitory concentration (IC50) is 9010 nM in [1] (virtually screened NCI hits, Table S17, read-out: MCF-7 (IC50)) and greater than 100000 nM in [2] (virtually screened NCI hits, Table S17, read-out: MDA-MB-231 (IC50)). Besides, the IC50 at 48 h in data set [3] is greater than 100000 nM.

For the molecule `CC(=O)c1cc(C(=O)OC2C=CC(=O)OC(O)CCCC=CC3CC(O)CC32)ccc1OCCN1C(=O)CCC1=O` (stereo not shown) [Compound 3DPQ-5, -decahydro-1H-cyclopenta[f][1]oxacyclotridecin-1-yl 3-acetyl-4-(2-(2,5-dioxopyrrolidin-1-yl)ethoxy)benzoate], the Ki was 0.18 nM in data set [4] (calculated antagonistic (inhibitory) constant, read-out: Ka ERα) and 41.8 nM in [5] (calculated antagonistic (inhibitory) constant, read-out: Ka ERβ). The IC50 in data set [4] (concentration that antagonizes 50% of ERα signaling activity, read-out: ERα (IC50 nM)) was 0.81 ± 0.43 nM; in data set [5] (concentration that antagonizes 50% of ERβ signaling activity, read-out: ERβ (IC50 nM)), 74.41 ± 0.46 nM; in data set [1] (setting [14]), 1.02 ± 0.64 nM; in data set [2] (setting [15]) it was 52.6 ± 0.69 nM; in [6], 1.42 ± 0.32 nM; in [7] (ERα downregulation measured in MCF-7, read-out: MCF-7 DR (IC50 nM)), greater than 100 nM. In [8], this molecule returned an IC50 greater than 100 nM. Further, in data set [4], the “logRBA ERα” value is 2.04 ^‡. Besides, the “ERα potency, fold more potent than 4-OHT” value in data set [4] stood at 1.38 fold. Further, the “logRBA ERβ” value in [5] was 0.08 ^†,‡,§. Moreover, in [1], the SI was 51.61 ^‡,§. The “Cell Cycle (%) G0/G1” value in data set [9] (setting [16]) was 71.78 ± 0.67 *^,†,‡,§ %; in data set [9] (10 nM (3DPQ-5, 3DPQ-6, 3DPQ-8)), 74.24 ± 2.15 *^,†,‡,§ %. In addition, the “Cell Cycle (%) G2/M” value in data set [9] (setting [16]) is on record as 19.01 ± 3.55 *^,†,‡,§ %; in data set [9] (10 nM (3DPQ-5, 3DPQ-6, 3DPQ-8)) it was 15.85 ± 4.43 *^,†,‡,§ %. Moreover, the “Cell Cycle (%) S” value in data set [9] (setting [16]) is listed as 9.21 ± 1.95 *^,†,‡,§ %; in data set [9] (10 nM (3DPQ-5, 3DPQ-6, 3DPQ-8)) it was 9.92 ± 0.76 *^,†,‡,§ %. Besides, the IC50 at 48 h in data set [3] is greater than 100 nM.

As for `CC(=O)c1cc(C(=O)O[C@@H]2/C=C/C(=O)O[C@@H](O)CCC/C=C/[C@@H]3C[C@H](O)C[C@H]32)ccc1OCCN1Cc2cccnc2C1` [Compound 3DPQ-6, (1R,2E,6R,10E,11aS,13S,14aR)-6,13-dihydroxy-4-oxo-4,6,7,8,9,11a,12,13,14,14a-decahydro-1H-cyclopenta[f][1]oxacyclotridecin-1-yl 4-(2-(5H-pyrrolo[3,4-b]pyridin-6(7H)-yl)ethoxy)-3-acetylbenzoate], the IC50 in data set [4] is 0.84 ± 0.11 nM; in [5] it was 86.56 ± 0.33 nM; in data set [1] (setting [14]) it was 1.14 ± 0.49 nM; in [2] (setting [15]), 52.31 ± 0.46 nM; in [6] it was 1.46 ± 0.43 nM; in data set [7], greater than 100 nM. The same molecule displayed an IC50 in data set [8] greater than 100 nM. Further, the Ki in data set [4] worked out at 0.19 nM; in data set [5], 48.6 nM. Besides, the “logRBA ERα” value in data set [4] was 2.03 ^‡. Also, the “ERα potency, fold more potent than 4-OHT” value in data set [4] was found to be 1.33 fold. In addition, in [5], the “logRBA ERβ” value is recorded as 0.01 ^†,‡,§. Moreover, the SI in data set [1] was 45.89 ^‡,§. For the same molecule, the “Cell Cycle (%) G0/G1” value in data set [9] (setting [16]) is recorded as 70.52 ± 1.53 *^,†,‡,§ %; in data set [9] (10 nM (3DPQ-5, 3DPQ-6, 3DPQ-8)) it was 71.98 ± 2.44 *^,†,‡,§ %. The “Cell Cycle (%) G2/M” value in data set [9] (setting [16]) is 16.21 ± 3.25 *^,†,‡,§ %; in data set [9] (10 nM (3DPQ-5, 3DPQ-6, 3DPQ-8)) it was 14.05 ± 2.43 *^,†,‡,§ %. Moreover, the “Cell Cycle (%) S” value in [9] (setting [16]) is given as 13.27 ± 2.64 *^,†,‡,§ %; in data set [9] (10 nM (3DPQ-5, 3DPQ-6, 3DPQ-8)) it was 13.98 ± 1.33 *^,†,‡,§ %. The same molecule had an IC50 at 48 h in data set [3] greater than 100 nM.

As to `CN(N=O)C(N)=O` [MNU, Methyl nitrosourea, reference compound], in data set [10], the “Tumor Burden (week)” value is 4.55 ± 0.15 *^,‡,§,‖,┴ week, the “Tumor Latency (week)” value was 5 *^,†,‡,§,‖,┴ week and the “Tumor Volume (mm^3)” value is 4.48 ± 0.54 mm^3. In addition, in data set [11] (serum), the “ALP (A/L)” value was 232.54±0.32 A/L, the “ALT (A/L)” value is given as 157.31 A/L, the “AST (U/L)” value was 135.43 U/L and the “γ-GT (U/L)” value was 19.43±0.42 U/L. Moreover, in [11] (total bilirubin content), the TBC is 32.34. This molecule had a CAT in [12] (catalase activity) of 3.08±0.68. Also, in data set [12], the “TBARS” value was 3.31 ± 0.72 nmol/mg. The “SOD (U/mg)” value in [12] (superoxide dismutase activity) came to 3.32±0.14 U/mg. Besides, the “TP” value in data set [12] (total protein content) stood at 51.32 ± 0.43 g/L. The breast section histopathology result in data set [13] is “mammary gland carcinoma alongside with massive proliferation of neoplastic epithelial cells (EC)”. For the same molecule, under setting [17], the colon section histopathology result was “induced colon”, the heart section histopathology result was “interstitial hydrops”, the kidney section histopathology entry is “large size neoplastic lymphocytes infiltrated into the interstitial” and the liver section histopathology result is on record as “numerous numbers of medium to large size neoplastic lymphocytes”. Also, under setting [17], the lung section histopathology result is “alveolar bronchiolar” and the spleen section histopathology result is given as “faded red pulp”. The “WL after MFD (day 1, mg)” value (average body weight at day 1, dosing at MFD) stood at 305.44 ± 0.62 mg. Moreover, the “MFD (5 days)” value (maximum feasible (or tolerated) dose, 5 days per os, 5-1000 mg/kg bwt) is on record as 100 mg/kg.
